Like-named read-outs stand apart in the source and are kept apart here.
How the values were obtained:
RPMI8226 cells = assay: Cytotoxicity experiment (Cell-Titer, 72 h) in RPMI8226 cells; assay type: cell-based; settings: for IC50: Homo sapiens, RPMI-8226, 72 h, Cell-Titer
Protocol: 4. Cytotoxicity Experiment
• (1) RPMI8226 cells in the logarithmic growth phase were added to a 384-well plate at 1000 cells/well in a volume of 18 μL/well and incubated at 37° C., 5% CO2 for 24 h. • (2) The test compound at a stock concentration of 10 mM was diluted 10-fold with DMSO and then 100-fold with a serum-free 1640 medium to give a dilution at a working concentration of 10 μM containing 1% DMSO. 10 concentrations were then obtained by 2-fold serial dilution using a serum-free 1640 medium containing 1% DMSO, with the tenth concentration point being a solvent control group (no drug). The diluted compound was added into the plated cell plate at 2 μL/well to give final compound concentrations from 1000 nM (2-fold gradient dilution, 10 concentration gradients), and 4 replicates were set for each concentration. 1% DMSO was used as a solvent control and KPT-8602 as a positive control. • (3) The cells were incubated at 37° C. for 72 h, and 10 μL of Cell-Titer assay reagent was added to each well, followed by incubation in a cell incubator for 10 min. • (4) The mixture was well mixed by shaking and then assayed by the Cell-Titer program running on a microplate reader. The inhibition % and IC50 values (μM) were calculated using GraphPad Prism 5.

[1] = In vivo toxicity assay in BALB/C mice (21 days, intragastric, once daily)
Protocol: IV. In Vivo Toxicity Assay of Candidate Compounds in BALB/C
25 BALB/C mice were randomly divided into the following 5 groups: solvent control group (Control), positive control KPT-8602 (30 mg/kg, once daily) group, KPT-8602 (60 mg/kg, once daily) group, compound I (30 mg/kg, once daily) group, and compound I (60 mg/kg, once daily) group, with 5 mice in each group. Each group was intragastrically given a test compound at a corresponding concentration at a dose of 3 mL/kg. KPT-8602 and compound I were administered daily for 21 consecutive days.

[2] = Pharmacokinetic results of the drugs in SD rats; assay type: in vivo; settings: for clearance: read-out: Cl s, spp
Text: III. Pharmacokinetic Results of the Drugs in SD Rats

[3] = 30 mg/kg once daily, intragastric, 21 days
[4] = rat, in vivo, po (10 mg/kg), read-out: AUC0-inf

Molecule `CO/C(=N\C(C)(C)C)NC(=O)/C(=C/n1cnc(-c2cc(C(F)(F)F)cc(C(F)(F)F)c2)n1)c1cncnc1` [III, Methyl(Z)-N-((E)-3-(3-(3,5-bis(trifluoromethyl)phenyl)-1H-1,2,4-triazol-1-yl)-2-(py-rimidin-5-yl)acryloyl)-N′-(tert-butyl)carbamate] has an IC50 (RPMI8226 cells) of 7100 nM.
For `CONC(=O)/C(=C/n1cnc(-c2cc(C(F)(F)F)cc(C(F)(F)F)c2)n1)c1cncnc1` [Compound I, (E)-3-(3-(3,5-Bis(trifluorometh-yl)phenyl)-1H-1,2,4-triazol-1-yl)-N-methoxy-2-(pyri-midin-5-yl)acrylamide], the body weight change [1, 3] was “body weights comparable to the blank”, the body weight change ([1]; 60 mg/kg once daily, intragastric, 21 days) was “body weights comparable to the blank” and the “safety (overall conclusion)” value ([1]; 30 and 60 mg/kg once daily, 21 days) was “good safety”. For the same molecule, the “cellular activity compared with KPT-8602” value (RPMI8226 cells) was “substantially equivalent to KPT-8602”, the IC50 (RPMI8226 cells) was 370 nM and the AUC0-inf ([2]; iv (2 mg/kg), in ng·h/mL) was 1493. The AUC0-t ([2]; iv (2 mg/kg), in ng·h/mL) was 1301, the “intravenous and oral AUCs compared with KPT-8602” value ([2]; iv and po) was “much higher than those of KPT-8602” and the “oral and intravenous half-lives compared with KPT-8602” value ([2]; iv and po) was “longer than those of KPT-8602”. For the same molecule, the “oral half-life compared with KPT-8602” value ([2]; po) was “about 2 times”, the Cl s, spp ([2]; po (10 mg/kg)) was 43.8 mL/min/kg and the “Cmax” value ([2]; po (10 mg/kg)) was 899 ng/mL. The MRT ([2]; rat, in vivo, iv (2 mg/kg)) was 2.49 h, the half-life ([2]; rat, in vivo, iv (2 mg/kg)) was 254 min and the clearance ([2]; rat, in vivo, iv (2 mg/kg)) was 24.2 mL/min/kg. For the same molecule, the MRT ([2]; rat, in vivo, po (10 mg/kg)) was 7.65 h, the Tmax ([2]; rat, in vivo, po (10 mg/kg)) was 15 min and the bioavailability ([2]; rat, in vivo, po (10 mg/kg)) was 55.9%. It also gave a half-life ([2]; rat, in vivo, po (10 mg/kg)) of 335 min, an AUC0-inf [2, 4] of 3890 ng·h/mL and an AUC0-t ([2]; rat, in vivo, po (10 mg/kg), read-out: AUC0-t) of 3210 ng·h/mL.
In the case of `NC(=O)/C(=C/n1cnc(-c2cc(C(F)(F)F)cc(C(F)(F)F)c2)n1)c1cncnc1` [KPT-8602, reference compound], the body weight change [1, 3] is reported as “significant decrease in body weight”, the “mortality by day 10” value ([1]; 60 mg/kg once daily, intragastric) is reported as “all died” and the “mice died on day 7” value ([1]; 60 mg/kg once daily, intragastric, 5 mice per group) is reported as “two”. For the same molecule, the IC50 (RPMI8226 cells) was 340 nM, the AUC0-inf ([2]; iv (2 mg/kg), in ng·h/mL) was 998 and the AUC0-t ([2]; iv (2 mg/kg), in ng·h/mL) was 963. It also gave a Cl s, spp ([2]; po (10 mg/kg)) of 67.4 mL/min/kg, an AUC0-t ([2]; po (10 mg/kg), in ng·h/mL) of 2541 and an MRT ([2]; rat, in vivo, iv (2 mg/kg)) of 2.48 h. The half-life ([2]; rat, in vivo, iv (2 mg/kg)) was 182 min, the clearance ([2]; rat, in vivo, iv (2 mg/kg)) was 34.4 mL/min/kg and the MRT ([2]; rat, in vivo, po (10 mg/kg)) was 3.85 h. The Tmax ([2]; rat, in vivo, po (10 mg/kg)) was 60 min, the bioavailability ([2]; rat, in vivo, po (10 mg/kg)) was 52% and the half-life ([2]; rat, in vivo, po (10 mg/kg)) was 161 min. The AUC0-inf [2, 4] was 2600 ng·h/mL and the Cmax ([2]; rat, in vivo, po (10 mg/kg), read-out: Cmax) was 720 ng/mL.
For `O=C(NO)/C(=C/n1cnc(-c2cc(C(F)(F)F)cc(C(F)(F)F)c2)n1)c1cncnc1` [II, (E)-3-(3-(3,5-Bis(trifluorometh-yl)phenyl)-1H-1,2,4-triazol-1-yl)-N-hydroxy-2-(pyri-midin-5-yl)acrylamide], the IC50 (RPMI8226 cells) was 6900 nM.
For `CCONC(=O)/C(=C/n1cnc(-c2cc(C(F)(F)F)cc(C(F)(F)F)c2)n1)c1cncnc1` [IV, (E)-3-(3-(3,5-Bis(trifluorometh-yl)phenyl)-1H-1,2,4-triazol-1-yl)-N-ethoxy-2-(pyrimi-din-5-yl)acrylamide], the “cellular activity compared with KPT-8602” value (RPMI8226 cells) was “substantially equivalent to KPT-8602” and the IC50 (RPMI8226 cells) was 540 nM.
